Results taken from patent US5260465A, “Inhibitors of farnesyl protein transferase” (Merck & Co., Inc., priority 1991, dated 1993).

Columns and labels:
[1] = target: T1, Farnesyl-protein transferase (FTase) from bovine brain (Bos taurus, UniProt P29702+P49355); assay: Inhibition of Ras farnesylation in vitro (FTase assay with Ras-CVLS and [3H]FPP); assay type: biochemical; settings: for IC50: Ras-CVLS 3.5 μM, 0.25 μM [3H]FPP, partially purified enzyme, compound (9) or (10), under assay conditions open dicarboxylate form
T1 construct: Farnesyl-protein transferase (FTase) from bovine brain was chromatographed on DEAE-Sephacel; from tissue; host or cells: bovine brain, partially purified (DEAE-Sephacel, N-octyl agarose, mono Q)
Experimental: The intrinsic farnesyl-protein transferase (FTase) activity of representative compounds of this invention was measured by the assay as described below:
Farnesyl-protein transferase (FTase) from bovine brain was chromatographed on DEAE-Sephacel (Pharmacia, 0-0.8M NaCl gradient elution), N-octyl agarose (Sigma, 0-0.6M NaCl gradient elution), and a mono Q HPLC column (Pharmacia, 0-0.3M NaCl gradient). Ras-CVLS (Cys-Val-Leu-Ser) at 3.5 μM, 0.25 μM [^3 H]FPP, and the indicated compounds were incubated with this partially purified enzyme preparation. The FTase inhibition data presented below is a measurement of the ability of the test compound to inhibit Ras farnesylation in vitro.

[2] = pH-dependent equilibrium / solution form of anhydride (9) and diacid (10), followed by UV; assay type: physicochemical; settings: for predominant form in solution (diacid/anhydride equilibrium): in a solution, pH dependent
Source text: The equilibrium between diacid (10) and anhydride (9) in a solution is pH dependent. […] However, when basified with dil NaOH, this maximum shifted to λmax 243 run. This shift is clear evidence of opening of the anhydride into the diacid. [drawing 8]
The latter band underwent a hypsochromic shift to 240 run after addition of dil NAOH.

Ras farnesylation = settings: Hancock et al., Casey et al., Schafer et al.; cited from earlier work
HMG-CoA reductase = settings: cited from earlier work

IC50 [1]	predominant form in solution (diacid/anhydride equilibrium) [2]	reactivity with CH3OH ([2]; methanolic solution)	existence in solution by pH ([2]; in solution)	Structure (SMILES)	Ras farnesyl transferase inhibitory activity of the diisopropylethylamine salt ([1]; open diacid (10) trapped as a diisopropylethylamine salt)	form under assay conditions ([2]; CH3OH-HEPES buffer solution (7:5), pH 7.5)	Inhibition of Ras farnesylation in vivo (Ras farnesylation)	inhibition of HMG-CoA reductase (HMG-CoA reductase)
110 nM	predominates when the solution is acidic	reacts slowly with CH3 OH	–	CCCCCCCC/C=C\CCCCCCC1=C(C)C(=O)OC1=O [Compound (9)]	–	–	–	–
110 nM	predominates when the solution is basic	–	exists in solution at pH 7 and above	CCCCCCCC/C=C\CCCCCC/C(C(=O)O)=C(\C)C(=O)O [Compound (10)]	without any loss of Ras farnesyl transferase inhibitory activity	exists substantially in the open dicarboxylate form	–	–
–	–	–	–	CC[C@H](C)C(=O)O[C@H]1CCC=C2C=C[C@H](C)[C@H](CC[C@@H]3C[C@@H](O)CC(=O)O3)[C@H]21 [compactin]	–	–	Inhibition of Ras farnesylation in vivo has been demonstrated	inhibit HMG-CoA reductase
–	–	–	–	CC[C@H](C)C(=O)O[C@H]1C[C@@H](C)C=C2C=C[C@H](C)[C@H](CC[C@@H]3C[C@@H](O)CC(=O)O3)[C@H]21 [lovastatin]	–	–	Inhibition of Ras farnesylation in vivo has been demonstrated	inhibit HMG-CoA reductase
